# Data as given in patent US20170050939A1, “SMALL MOLECULE INHIBITORS OF G PROTEIN COUPLED RECEPTOR 6 KINASE POLYPEPTIDES” (Mayo Foundation for Medical Education and Research, priority 2014, published 2017).
# Target: T1, GRK6, recombinant full-length GST-tagged human protein (Homo sapiens, UniProt P43250)
# T1 construct: GRK6, recombinant full-length GST-tagged human protein; GST
# Assay: GRK6 IC50 determination (8-point concentration-response)
# Assay type: biochemical
# Conditions: not given
# From the text: Two hundred forty compounds were further characterized by determining IC50 values in a GRK6 assay. This screen has been previously described in WO 2013/063458, which is incorporated by reference in its entirety herein.
# T1 sequence (P43250 whole entry): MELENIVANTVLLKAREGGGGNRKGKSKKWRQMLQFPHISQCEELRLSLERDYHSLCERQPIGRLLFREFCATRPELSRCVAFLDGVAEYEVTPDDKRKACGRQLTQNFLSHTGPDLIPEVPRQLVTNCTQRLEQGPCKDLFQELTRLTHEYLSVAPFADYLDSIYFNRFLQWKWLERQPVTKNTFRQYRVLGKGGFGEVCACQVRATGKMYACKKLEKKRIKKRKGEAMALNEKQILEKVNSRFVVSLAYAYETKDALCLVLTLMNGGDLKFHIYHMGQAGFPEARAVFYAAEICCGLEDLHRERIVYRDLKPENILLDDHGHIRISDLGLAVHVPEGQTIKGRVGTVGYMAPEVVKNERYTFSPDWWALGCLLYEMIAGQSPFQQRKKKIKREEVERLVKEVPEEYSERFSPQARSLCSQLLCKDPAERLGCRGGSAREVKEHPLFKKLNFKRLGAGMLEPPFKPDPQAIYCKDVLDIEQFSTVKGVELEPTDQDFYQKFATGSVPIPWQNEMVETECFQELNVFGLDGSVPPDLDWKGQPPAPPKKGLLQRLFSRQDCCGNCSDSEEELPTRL
row,Structure (SMILES),IC50 [nM]
1,O=C(O)CSc1nnc(-c2cc(-c3cccc(O)c3)cc([N+](=O)[O-])c2)[nH]1 [Compound 24],212
2,Cn1ccc2c(-c3cc(-c4nnc(SCC(=O)O)[nH]4)cc([N+](=O)[O-])c3)cccc21 [Compound 16],140
3,O=C(O)CSc1nnc(-c2cc(-c3ccc4ccccc4c3)cc([N+](=O)[O-])c2)[nH]1 [Compound 6],78.4
4,Cc1nn(C)cc1-c1cc(-c2ccc3ccccc3c2)cc(-c2nnc(SCC(=O)O)[nH]2)c1 [Compound 57],748
5,CCCn1ccc2cc(-c3cc(-c4nnc(SCC(=O)O)[nH]4)cc([N+](=O)[O-])c3)ccc21 [Compound 25],227
6,O=C(O)CSc1nnc(-c2cc(-c3cccnc3)cc(-c3ccc4ccccc4c3)c2)[nH]1 [Compound 31],283
7,O=C(O)CSc1nnc(-c2cc(-c3cnn(Cc4ccccc4)c3)cc([N+](=O)[O-])c2)[nH]1 [Compound 72],141
8,Cc1noc(C)c1-c1cc(-c2nnc(SCC(=O)O)[nH]2)cc([N+](=O)[O-])c1 [Compound 91],1380
9,O=C(O)CSc1nnc(-c2cc(NC(=O)c3ccco3)cc(-c3ccc4ccccc4c3)c2)[nH]1 [Compound 59],768
10,Cc1c(-c2cc(-c3ccc4ccccc4c3)cc(-c3nnc(SCC(=O)O)[nH]3)c2)cnn1C [Compound 38],376
11,O=C(O)CSc1nnc(-c2cc(-c3ccc4cc[nH]c4c3)cc([N+](=O)[O-])c2)[nH]1 [Compound 12],122
12,O=C(O)CSc1nnc(-c2cc(-c3ccc4ccccc4c3)cc(C3C=NN=C3)c2)[nH]1 [Compound 28],262
13,O=C(O)CSc1nnc(-c2cc(-c3ccc4[nH]ccc4c3)cc([N+](=O)[O-])c2)[nH]1 [Compound 5],73.9
14,CC(=O)Nc1cccc(-c2cc(-c3nnc(SCC(=O)O)[nH]3)cc([N+](=O)[O-])c2)c1 [Compound 42],431
15,CN1CCOc2cc(-c3cc(-c4nnc(SCC(=O)O)[nH]4)cc([N+](=O)[O-])c3)ccc21 [Compound 29],269
16,Cn1ccc2cc(-c3cc(-c4nnc(SCC(=O)O)[nH]4)cc([N+](=O)[O-])c3)ccc21 [Compound 3],60
17,COc1cncc(-c2cc(-c3ccc4ccccc4c3)cc(-c3nnc(SCC(=O)O)[nH]3)c2)c1 [Compound 46],461
18,O=C(O)CSc1nnc(-c2cc(-c3ccc(O)cc3)cc([N+](=O)[O-])c2)[nH]1 [Compound 22],187
19,COc1ccc2cc(-c3cc(-c4nnc(SCC(=O)O)[nH]4)cc([N+](=O)[O-])c3)ccc2c1 [Compound 23],199

# The next lines start with the values.
row,IC50 [nM],Structure (SMILES)
1,13400,O=C(O)CSc1nnc(-c2cccc3cc[nH]c23)[nH]1 [Compound 153]
2,6450,O=C(O)CSc1nnc(-c2ccc3[nH]cnc3c2)[nH]1 [Compound 125]
3,> 100000,O=C(O)CS(=O)(=O)c1nnc(-c2ccccc2)[nH]1 [Compound 210]
4,11700,O=C(O)CSc1nnc(-c2cccc(C(=O)Nc3ccc(Cl)cc3)c2)[nH]1 [Compound 148]
5,3080,O=C(O)CSc1nnc(-c2ccc3occc3c2)[nH]1 [Compound 102]
6,4780,O=C(O)CSc1nnc(-c2cc(C(=O)NCc3cccnc3)cc([N+](=O)[O-])c2)[nH]1 [Compound 116]
7,17300,O=C(O)CSc1nnc(-c2cccc(C(=O)Nc3ccc4c(c3)NC(=O)CC4)c2)[nH]1 [Compound 160]
8,6930,O=C(O)CSc1nnc(-c2cccc(C(=O)Nc3ccc4cn[nH]c4c3)c2)[nH]1 [Compound 130]
9,3330,O=C(O)CSc1nnc(-c2cccc(C(=O)Nc3ccc4c(c3)NC(=O)C4)c2)[nH]1 [Compound 105]
10,11400,O=C(O)CSc1nnc(-c2cccc(C(=O)Nc3cccc4[nH]ncc34)c2)[nH]1 [Compound 146]

# Same assay, conditions: 20 nM GRK6, 12 μM ATP (Km), 1 μM Peptide 216, 7 h incubation
row,Structure (SMILES),IC50 [nM]
1,O=C(O)CSc1nnc(-c2cc(Br)ccc2O)[nH]1 [Compound 89],1050
2,COc1cc(Cl)cc(-c2cccc(-c3nnc(SCC(=O)O)[nH]3)c2)c1 [Compound 41],426
3,O=C(O)CSc1nnc(-c2cccc(-c3ccc4ccccc4c3)c2)[nH]1 [Compound 39],417
4,COc1cc(F)cc(-c2nnc(SCC(=O)O)[nH]2)c1 [Compound 98],2610

# The remaining lines, values ahead:
row,IC50 [nM],Structure (SMILES)
1,35300,CN(CCC#N)c1ccc(-c2nnc(SCC(=O)O)[nH]2)cc1 [Compound 179]
2,4700,O=C(O)CSc1nnc(-c2cccc(F)c2)[nH]1 [Compound 115]
3,8830,COc1cc(-c2nnc(SCC(=O)O)[nH]2)cc(OC)c1O [Compound 140]
4,6360,CS(=O)(=O)c1cccc(-c2nnc(SCC(=O)O)[nH]2)c1 [Compound 124]
5,40000,O=C(O)CSc1nnc(-c2ccc(OC3CCNCC3)cc2)[nH]1 [Compound 182]
6,3020,O=C(O)CSc1nnc(-c2cccc(C(F)(F)F)c2)[nH]1 [Compound 101]
7,6800,O=C(O)CSc1nnc(-c2ccc(O)c([N+](=O)[O-])c2)[nH]1 [Compound 128]
8,40000,CN(C)Cc1ccc(-c2nnc(SCC(=O)O)[nH]2)cc1 [Compound 184]
9,18300,COc1ccc(F)c(-c2nnc(SCC(=O)O)[nH]2)c1 [Compound 163]
10,38500,COc1cc(F)c(-c2nnc(SCC(=O)O)[nH]2)c(F)c1 [Compound 181]
11,20700,COc1cc(-c2nnc(SCC(=O)O)[nH]2)cc(O)c1OC [Compound 168]
